In paper PMC8379205, “Bioinspired caries preventive strategy via customizable pellicles of saliva-derived protein/peptide constructs” (Scientific Reports, 2021):
Where two headings read alike, the source gives them in different places. Non-standard residues stand in square brackets, D forms with d. Residues, ends and D or L forms follow the SMILES beside them. No end group written: not given here. pS = N[C@@H](COP(=O)(O)O)C(=O)O

Assays:
[1] = test system: Streptococcus mutans U159; format: cell-based
Experimental: MICs were assessed for all proteins/peptides against Streptococcus mutants (S. mutans) U159 oral bacteria to identify the lowest concentration at which no bacterial growth is observed. Planktonic bacteria were grown aerobically (10% CO2) in brain heart infusion (BHI) medium (BD BBL™ #211,059, MD, USA) overnight. […] BHI medium was used as a control. Bacteria were inoculated to a final concentration of 3.0 × 10^6 CFU/ml per well. The plates were incubated at 37 °C in a 10% CO2 atmosphere for 24 h under continuous shaking (200 rpm). Absorbance at 620 nm was measured using a microtiter plate reader (BioTek™ SynergyHT, VT, USA).

S. mutans U159 biofilms [2] = assay: Crystal violet (CV) biomass assay on pellicle-coated substrates; format: cell-based, Streptococcus mutans; conditions: no sucrose (NS), 24 h biofilm; for Biovolume / biomass of biofilm (crystal violet): pellicle-coated with 200 μM for 2 h at 37 °C, OD 620 nm, compared to whole saliva; for Biofilm structure (brightfield, crystal violet-stained): polystyrene microtiter plates
Experimental: CV assay was performed to assess the remaining bioburden on pellicle-coated substrates with protein/peptide test groups in comparison to human whole saliva. Microtiter plates and HA discs were used as substrates to be pellicle-coated before growing biofilms. Each substrate was pellicle-coated with 50 μl of 200 μM protein/peptide candidates for 2 h at 37 °C under gentle shaking. Pooled filtered whole saliva and the vehicle were used as positive and negative controls respectively. The unbound protein/peptide/saliva were removed, the adjusted inoculum was dispensed without or with 1% sucrose supplementation and the samples were incubated as mentioned above but without agitation. Next day, the samples were rinsed and stained with 0.1% CV. After 15 min, the stain was rinsed, air dried, and photographed. All formed biofilms were structurally characterized with a bright field inverted microscope (EVOS™ xl core, MA, USA) before dissolving the satin, with 33% acetic acid, and reading at OD 620 nm.

S. mutans U159 biofilms [3] = assay: Live/dead vitality assay of biofilms on pellicle coatings; format: cell-based, Streptococcus mutans; conditions: NS and WS conditions, HA discs; order Hist3 followed by Hist5, Hist1 and RR14; 3 independent times, n = 5
Experimental: The vitality of grown biofilms was observed alongside their biomass to determine the antimicrobial efficacy of protein/peptide pellicle-coatings against the attached bacteria in the biofilm state. All the steps are the same as mentioned above till the staining step. Working fluorescent solution was prepared by adding 3 μl of SYTO® 9 stain and 3 μl of Propidium iodide stain to 1 ml of filter-sterilized water. The staining solution was added to each sample very gently so as not to disturb the biofilm. After 20 min light-protected incubation, samples were rinsed with 0.9% NaCl and imaged with fluorescent inverted microscope (EVOS™ M5000, MA, USA) using 20 × lens. All assays were conducted 3 independent times with sample size n = 5.

[4] = 2-photon immobilization of fluorescently labelled proteins/peptides on human enamel; format: binding; conditions: FAM-labelled
Source text: This characterization method aimed to monitor the amount of protein/peptide molecules immobilized on enamel in pellicle-mimicking conditions to infer their binding capacity. Z-stacks for pellicle-coated enamel slices were acquired to monitor the immobilization patterns and thus, the binding capacity of fluorescently-labelled proteins/peptides. Enamel samples were ground to 0.5–0.6 mm and polished with 600 silica-grit papers using a polishing machine (Buehler, IL, USA). Samples were then ultrasonicated in a water bath for 20 min, dried and pellicle-coated with fluorescently labeled proteins/peptides as mentioned above. 2-photon images were acquired as aforementioned using 40 × NA 0.8 water immersion objective (LUMPlanFl/IR, Olympus, Japan). Solutions of the tagging molecule (FAM) and the vehicle, 0.01% acetic acid, were used to pellicle-coat the positive and negative controls respectively. The amount of immobilized fluorescent protein/peptide molecules were quantified by calibrating the emitted fluorescence signals[21]^. The mean integrated density was calculated that sums all of the pixels along the acquired z-stacks, 4 images each.

S. mutans U159 biofilms [5] = assay: 2-photon 3D renderings of biofilms grown on pellicle-coated HA discs; format: cell-based, Streptococcus mutans; conditions: 24 h biofilm, cariogenic conditions (1% sucrose), 2-photon 3D volume
Source text: Z-stacks were acquired with the 2-photon microscope (Ultima IV, Prairie Technology Inc., WI, USA) for 3D structural and vitality characterization of biofilms grown on protein/peptide pellicle-coated HA discs. Non-descanned high sensitivity multi-alckali photocatode photomultiplier detectors (R3896, Hamamatsu, Japan) were used to allow visualization of multiple fluorophores located deep within the specimen. The infra-red (IR) laser (MAI TAI, Spectra-Physics, USA), tuned at 870 nm, was operated in pulsed mode using a 20 × NA1.0 water-immersion objective (XLUMPlanFLN, Olympus, Japan) with a 2 mm working distance suitable for deep imaging. Images were compiled and analyzed with FIJI software (Fiji Is Just) ImageJ, version: 2.1.0/1.53c https://imagej.net/Contributors[19].

[6] = planktonic S. mutans U159, BHI medium, 3.0 × 10^6 CFU/ml, twofold dilutions 0–512 μM, 37 °C, 10% CO2, 24 h, shaking 200 rpm, absorbance 620 nm

Compound | MIC ([1]; U159, 24 h) [µM] | MIC [1, 6] [µM] | Biovolume / biomass of biofilm (crystal violet) (S. mutans U159 biofilms [2]) | Dead cells / antimicrobial efficacy in biofilm (Syto-9/propidium iodide) (S. mutans U159 biofilms [3]) | Biofilm structure (brightfield, crystal violet-stained) (S. mutans U159 biofilms [2]) | Immobilization capacity on enamel [4] | Biofilm thickness (S. mutans U159 biofilms [5])
CC(C)C[C@H](NC(=O)[C@H](Cc1ccccc1)NC(=O)[C@H](CCCCN)NC(=O)[C@H](CCC(=O)O)NC(=O)[C@H](CCC(=O)O)NC(=O)[C@H](CO)NC(=O)[C@H](CO)NC(=O)[C@@H](N)CC(=O)O)C(=O)N[C@@H](CCCNC(=N)N)C(=O)O [DR9/2] (H-DSSEEKFLR-OH) | > 512 | – | – | – | – | – | –
Histatin1: native salivary protein, synthesized (DSHEKRHHGYRRKFHEKHHSHREFPFYGDYGSNYLYDN; ends and bridges not checked; UniProt P15515 20-57, looked up) | – | > 512 | highest biovolume | Many dead cells | – | – | –
CC(C)C[C@H](NC(=O)[C@H](Cc1ccc(O)cc1)NC(=O)[C@H](CC(N)=O)NC(=O)[C@H](CO)NC(=O)[C@H](CCCNC(=N)N)NC(=O)[C@H](Cc1ccc(O)cc1)NC(=O)CNC(=O)[C@H](CCCNC(=N)N)NC(=O)[C@H](Cc1c[nH]cn1)NC(=O)[C@H](CO)NC(=O)[C@H](Cc1c[nH]cn1)NC(=O)[C@H](Cc1c[nH]cn1)NC(=O)[C@H](CCCCN)NC(=O)[C@H](CCC(=O)O)NC(=O)[C@H](Cc1c[nH]cn1)NC(=O)[C@H](Cc1ccccc1)NC(=O)[C@H](CCCCN)NC(=O)[C@H](CCCNC(=N)N)NC(=O)[C@H](CCCCN)NC(=O)[C@H](Cc1ccc(O)cc1)NC(=O)CNC(=O)[C@H](Cc1c[nH]cn1)NC(=O)[C@H](Cc1c[nH]cn1)NC(=O)[C@H](CCCNC(=N)N)NC(=O)[C@H](CCCCN)NC(=O)[C@H](C)NC(=O)[C@H](Cc1c[nH]cn1)NC(=O)[C@H](CO)NC(=O)[C@@H](N)CC(=O)O)C(=O)N[C@@H](Cc1ccc(O)cc1)C(=O)N[C@@H](CC(=O)O)C(=O)N[C@@H](CC(N)=O)C(=O)O [Histatin3] | – | 128 | considerably reduced biomass build-up | Many dead cells | more dispersed biofilms | – | –
DSpSpEEKFLRDSpSpEEKFLR [DR9-DR9, duplicated DR9 construct, domains linked synthetically] | – | > 512 | highest biovolume | – | clumps and aggregates | – | –
D[pS][pS]EEKFLRRIGRFGYGYGPYQPVPEQPLYPQPYQPQYQQYTF [Statherin] | > 512 | – | highest biovolume | – | clumps and aggregates | highest immobilization capacity | –
N=C(N)NCCC[C@H](NC(=O)[C@H](Cc1ccc(O)cc1)NC(=O)CNC(=O)[C@H](CCCNC(=N)N)NC(=O)[C@H](Cc1c[nH]cn1)NC(=O)[C@H](CO)NC(=O)[C@H](Cc1c[nH]cn1)NC(=O)[C@H](Cc1c[nH]cn1)NC(=O)[C@H](CCCCN)NC(=O)[C@H](CCC(=O)O)NC(=O)[C@H](Cc1c[nH]cn1)NC(=O)[C@H](Cc1ccccc1)NC(=O)[C@H](CCCCN)NC(=O)[C@@H](N)CCCNC(=N)N)C(=O)O [RR14] (H-RKFHEKHHSHRGYR-OH) | 384 | – | – | – | – | – | –
CC(C)C[C@H](NC(=O)[C@H](Cc1ccccc1)NC(=O)[C@H](CCCCN)NC(=O)[C@H](CCC(=O)O)NC(=O)[C@H](CCC(=O)O)NC(=O)[C@H](COP(=O)(O)O)NC(=O)[C@H](COP(=O)(O)O)NC(=O)[C@@H](N)CC(=O)O)C(=O)N[C@@H](CCCNC(=N)N)C(=O)O [DR9] (H-D[pS][pS]EEKFLR-OH; N-terminus and C-terminus assumed) | > 512 | – | considerably reduced biomass build-up | – | – | – | 60–65 μm
